PMC11204760, “New Cyclic Pentapeptides from the Mangrove-Derived Aspergillus fumigatus GXIMD 03099” (Marine Drugs, 2024)
≈ marks a conversion by molar mass, not a printed value. Where a SMILES comes first, the peptide text is derived from it. [ ]: non-standard residue; d: D form. dNMeF = CN[C@H](Cc1ccccc1)C(=O)O; Pip = O=C(O)[C@@H]1CCCCN1; 2Abz = Nc1ccccc1C(=O)O; Abu = CC[C@H](N)C(=O)O

Columns and labels:
[1] = test system: newly hatched larvae of Culex quinquefasciatus; experiment: Insecticidal activity against newly hatched Culex quinquefasciatus larvae; assay type: in vivo; details: 25 ± 1 °C, 80% relative humidity, dead larvae recorded on 2nd, 4th, 6th and 8th days, two sets of replicates, azadirachtin positive control
Procedure: The insecticidal activity against Culex quinquefasciatus larvae was evaluated according to methods reported in the literature. Newly hatched larvae were housed at 25 ± 1 °C and 80% relative humidity. Two sets of replicates were set up with dimethyl sulfoxide as a negative control, azadirachtin as a positive control, and artificial feed as a blank control. The number of dead larvae was recorded on 2nd, 4th, 6th, and 8th days after treatment.

[2] = test system: Vibrio harveyi (ATCC 14126); assay type: cell-based; details: V. harveyi ATCC 14126, microplate assay; chloromycetin positive control
Procedure: Antibacterial activity was determined against nine pathogenic bacteria, including six Gram-positive bacteria—Methicillin-resistant Staphylococcus aureus (ATCC 43300), […], Staphylococcus albus (ATCC 8799), Staphylococcus aureus (ATCC 6538), Bacillus subtilis (ATCC 21332), and […] —and three Gram-negative bacteria—Vibrio parahaemolyticus (ATCC 17802), V. alginolyticus (ATCC 17749), and V. harveyi (ATCC 14126)—by the microplate assay method. Chloromycetin was used as the positive control.

[3] = cited from earlier work
From the text: (§1) Cyclic pentapeptides, a subclass of cyclic peptides, are usually constructed by five amino acid residues. To date, about 60 cyclic pentapeptides have been characterized. Among them, avellanins A–C were exclusively found in Hamigera avellanea, Hamigera ingelheimensis, and Aspergillus petrakii, respectively. […] During our continuing efforts to identify new bioactive metabolites from mangrove-derived fungi [[20],[21],[ ...

[4] = test system: quorum-sensing; details: cited from earlier work
From the text: as §1

Compound: CC[C@H](C)[C@@H]1NC(=O)[C@@H](C)NC(=O)[C@@H](Cc2ccccc2)N(C)C(=O)[C@@H]2CCCCN2C(=O)c2ccccc2NC1=O [compound 2, avellanin E] (cyclo([Pip][dNMeF][dA]I[2Abz]))
- LC50, insecticidal activity [1]: 86.6 µM

Compound: CC[C@@H]1NC(=O)[C@@H](C)NC(=O)[C@@H](Cc2ccccc2)N(C)C(=O)[C@@H]2CCCN2C(=O)c2ccccc2NC1=O [compound 4, avellanin G] (cyclo(P[dNMeF][dA][Abu][2Abz]))
- MIC [2]: 5.85 µM (≈ 3.12 µg/mL)

Compound: L-Pro-Ant-L-Ile-D-Ala-N-Me-D-Phe (head to tail) [compound 5, avellanin A, known cyclic pentapeptide isolated from the fungus]
- effect on blood pressure [3]: elevates blood pressure

Compound: avellanin B [compound 6]
- effect on activity of antineoplastic drugs [3]: improves the activity of antineoplastic drugs

Compound: avellanin C
- quorum-sensing inhibitory activity [4]: exhibits quorum-sensing inhibitory activity
